Patent publication US20130143929A1, “FUNGICIDAL IMIDAZOLES” (EI DU PONT DE NEMOURS AND COMPANY, priority 2010, published 2013)
Marks after values point to notes of the source that are not given here.

Columns and labels:
Assay type in all cases: in vivo
[1] = system: Botrytis cinerea (the causal agent of tomato Botrytis); test: Test C: tomato Botrytis, preventive spray on tomato seedlings, visual disease rating; conditions: tomato Botrytis, preventive spray on tomato seedlings
Procedure, shortened: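 Test suspension (acetone/water with 250 ppm Trem 014; 200 ppm equivalent to 800 g/ha) sprayed to run-off on tomato seedlings; B. cinerea spores inoculated next day. After 48 h saturated humidity at 20° C then 3 days at 24° C, disease rated visually as % control relative to untreated controls (0–100).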

[2] = system: Puccinia recondite f. sp. tritici (the causal agent of wheat leaf rust); test: Test A: wheat leaf rust, preventive spray on wheat seedlings, visual disease rating; conditions: wheat leaf rust, preventive spray on wheat seedlings
Procedure, shortened: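 Wheat seedlings were sprayed to run-off with compound suspended in acetone/water containing 250 ppm Trem 014 (200 ppm ≈ 800 g/ha; some at 40 ppm). Puccinia recondite spores were inoculated the next day. Plants were held 24 h saturated at 20° C, then 7 days at 20° C, and disease control was rated visually on a 0–100 scale against controls.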

[3] = system: Blumeria graminis f. sp. tritici (also known as Erysiphe graminis f. sp. tritici, the causal agent of wheat powdery mildew); test: Test D: wheat powdery mildew, preventive spray on wheat seedlings, visual disease rating; conditions: wheat powdery mildew, preventive spray on wheat seedlings
Procedure, shortened: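 Compound suspended in acetone/water (50/50) with 250 ppm Trem 014 and sprayed to run-off on wheat seedlings (200 ppm ≈ 800 g/ha), then inoculated next day with spore dust. Disease rated visually after 8 days at 20 °C as % control relative to untreated plants (0-100).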

[4] = system: Septoria tritici (the causal agent of wheat leaf blotch); test: Test B: wheat leaf blotch, preventive spray on wheat seedlings, visual disease rating; conditions: wheat leaf blotch, preventive spray on wheat seedlings
Procedure, shortened: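 Wheat seedlings sprayed to run-off with compound suspension (acetone/water with 250 ppm Trem 014; 200 ppm ≈ 800 g/ha, some at 40 ppm), inoculated next day with Septoria tritici spores. 48 h saturated humidity at 24 °C, then 19 days at 20 °C; visual rating, 100 = full control.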

[5] = asterisk: 40 ppm test suspension
[6] = no asterisk (standard test suspension concentration, not 40 ppm)

SMILES | Test C rating (100 = 100% disease control, 0 = no disease control relative to the controls) [1, 5] | Test A rating (100 = 100% disease control, 0 = no disease control relative to the controls) [2, 5] | Test D rating (100 = 100% disease control, 0 = no disease control relative to the controls) [3, 5] | Test B rating (100 = 100% disease control, 0 = no disease control relative to the controls) [4, 5] | Test C rating (100 = 100% disease control, 0 = no disease control relative to the controls) [1, 6] [%] | Test A rating (100 = 100% disease control, 0 = no disease control relative to the controls) [2, 6] [%] | Test D rating (100 = 100% disease control, 0 = no disease control relative to the controls) [3, 6] [%] | Test B rating (100 = 100% disease control, 0 = no disease control relative to the controls) [4, 6] [%]
Cc1ccc(C(O)c2c(Br)nc(C)n2-c2c(F)cccc2F)c(C)c1 (centres unmarked) [compound 145] | 51* % | 100* % | 98* % | 100* % | – | – | – | –
COc1cc(F)c(C(O)c2c(Br)nc(C)n2-c2c(F)cccc2F)c(F)c1 (centres unmarked) [compound 147] | 99* % | 100* % | 0* % | 100* % | – | – | – | –
OC(c1ccc(F)cc1Cl)c1c(Br)nc(C2CC2)n1-c1c(F)cccc1Br (centres unmarked) [compound 150] | – | – | – | – | 0 | 85 | 27 | 100
OC(c1ccc(F)cc1Cl)c1c(Cl)nc(C2CC2)n1-c1c(F)cccc1Br (centres unmarked) [compound 151] | – | – | – | – | 0 | 74 | 64 | 100
OC(c1ccc(F)cc1F)c1cnc(C2CC2)n1-c1c(F)cccc1Br (centres unmarked) [compound 152] | – | – | – | – | 0 | 74 | 0 | 0
COc1cc(F)c(C(O)c2c(Cl)nc(C)n2-c2ccc(F)cc2Cl)c(F)c1 (centres unmarked) [compound 153] | 99* % | – | – | – | – | 100 | 94 | 100
OC(c1ccc(F)cc1F)c1c(Cl)nc(Cl)n1-c1c(F)cc(Cl)cc1F (centres unmarked) [compound 154] | 100* % | 100* % | 89* % | 100* % | – | – | – | –
Cc1nc(Cl)c(C(O)c2c(F)cc(F)cc2F)n1-c1ccc(F)cc1Br (centres unmarked) [compound 155] | – | – | – | – | 99 | 100 | 0 | 100
Cc1nc(Cl)c(C(O)c2c(F)cc(Cl)cc2F)n1-c1ccc(F)cc1Cl (centres unmarked) [compound 156] | – | – | – | – | 16 | 98 | 0 | 92
Cc1cc(Cl)ccc1C(O)c1c(Cl)nc(C)n1-c1c(F)cccc1F (centres unmarked) [compound 159] | 99* % | 99* % | 97* % | 100* % | – | – | – | –
Cc1cc(Cl)ccc1C(O)c1c(Br)nc(C)n1-c1c(F)cccc1F (centres unmarked) [compound 161] | 94* % | 92* % | 84* % | 100* % | – | – | – | –
